pIC50: −log10 of the molar value.
Biological target: T1, c-kit (Homo sapiens, UniProt P10721)
T1 construct: MO7e (human megakaryocytic leukemia cell line) which had been arrested for 20 hr; endogenous in cells; host or cells: MO7e human megakaryocytic leukemia cell line
Test: Inhibitory activity against c-kit autophosphorylation (MO7e cells, h-SCF)
Format: cell-based
Conditions: MO7e cells, 50 ng/ml h-SCF; read-out: c-kit IC50
Experimental: Inhibitory Activity Against c-kit Autophosphorylation
MO7e (human megakaryocytic leukemia cell line) which had been arrested for 20 hr was seeded into 96 well plates at an amount of 2×10^5 per well. A solution of a test compound in DMSO was added, and a reaction was then allowed to proceed for one hr. Thereafter, the cells were stimulated by 50 ng/ml of h-SCF for 5 min, followed by replacement with lysate buffer to solubilize the cells.
Next, the solubilized cell sap was transferred to a 96-well plate with an anti-phosphotyrosine antibody (PY-20) previously immobilized thereon, and a reaction was allowed to proceed. Thereafter, the cells were reacted with an anti-c-kit antibody (c-19, Santa Cruz) as a primary antibody and were labelled with GAR (anti-rabbit IgG, horseradish peroxidase, Amersham) as a secondary antibody. Color development was then carried out in a peroxidase color development kit (Sumitomo Bakelite Co., Ltd.), and the absorbance was measured at a wavelength of 450 nm.

T1 sequence (P10721 26-976): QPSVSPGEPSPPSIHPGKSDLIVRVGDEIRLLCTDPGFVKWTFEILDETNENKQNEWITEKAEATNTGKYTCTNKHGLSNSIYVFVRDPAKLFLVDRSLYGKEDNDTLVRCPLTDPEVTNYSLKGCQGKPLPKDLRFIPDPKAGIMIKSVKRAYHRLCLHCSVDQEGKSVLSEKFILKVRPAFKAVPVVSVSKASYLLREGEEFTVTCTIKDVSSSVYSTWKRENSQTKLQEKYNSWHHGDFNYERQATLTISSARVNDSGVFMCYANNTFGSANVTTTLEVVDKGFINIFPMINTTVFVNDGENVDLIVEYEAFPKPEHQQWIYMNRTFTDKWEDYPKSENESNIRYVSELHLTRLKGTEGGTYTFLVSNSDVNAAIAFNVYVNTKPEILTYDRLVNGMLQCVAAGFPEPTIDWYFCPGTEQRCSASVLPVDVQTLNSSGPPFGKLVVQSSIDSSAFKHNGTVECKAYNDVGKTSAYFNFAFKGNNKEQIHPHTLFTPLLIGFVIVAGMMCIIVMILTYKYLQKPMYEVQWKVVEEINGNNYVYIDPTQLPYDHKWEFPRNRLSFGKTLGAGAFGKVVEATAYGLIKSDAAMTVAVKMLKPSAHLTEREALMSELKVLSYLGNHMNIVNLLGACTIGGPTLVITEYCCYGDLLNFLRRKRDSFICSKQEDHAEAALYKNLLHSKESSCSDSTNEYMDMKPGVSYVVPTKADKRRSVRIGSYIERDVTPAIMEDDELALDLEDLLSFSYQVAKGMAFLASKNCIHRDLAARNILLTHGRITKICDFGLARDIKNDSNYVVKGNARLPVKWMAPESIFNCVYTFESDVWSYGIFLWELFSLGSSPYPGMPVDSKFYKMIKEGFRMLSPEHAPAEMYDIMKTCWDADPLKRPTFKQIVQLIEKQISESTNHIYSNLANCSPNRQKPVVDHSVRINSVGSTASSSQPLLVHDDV

For COc1cc2nccc(Oc3ccc(OCCNc4ccccc4C)cc3)c2cc1OC [Example 783, N-(2-{4-[(6,7-Dimethoxy-4-quinolyl)oxy]phenoxy}ethyl)-N-(2-methylphenyl)amine], the pIC50 was 6.35.

Same assay, conditions: MO7e cells, h-SCF 50 ng/ml; read-out: c-kit IC50

Point of comparison: COc1cccc(COC(=O)Nc2ccc(Oc3ccnc4cc(OC)c(OC)cc34)cc2)c1 [Example 226, 3-Methoxybenzyl N-{4-[(6,7-dimethoxy-4-quinolyl)oxy]phenyl}carbamate], pIC50 7.14. Against it:
- COc1cc2nccc(Oc3cc(C)c(NC(=O)OC4CCCCC4)cc3C)c2cc1OC [Example 221, Cyclohexyl N-{4-[(6,7-dimethoxy-4-quinolyl)oxy]-2,5-dimethylphenyl}carbamate] — within 0.2 log units, 6.96

Same assay, conditions: MO7e cells, h-SCF stimulation; read-out: c-kit IC50

Point of comparison: COc1cc2ncnc(Oc3ccc(NC(=S)NC(=O)c4cccc(Cl)c4)cc3)c2cc1OC [Example 955, N-(3-Chlorobenzoyl)-N′-{4-[(6,7-dimethoxy-4-quinazolinyl)oxy]phenyl}thiourea], pIC50 6.60. Against it:
- COc1cc2nccc(Oc3ccc(NC(=S)NC(=O)c4ccc(Cl)cc4)cc3F)c2cc1OC [Example 971, N-(4-Chlorobenzoyl)-N′-{4-[(6,7-dimethoxy-4-quinolyl)oxy]-3-fluorophenyl}thiourea] — 0.32 log units lower, 6.28
- CCOc1ccc(C(=O)NC(=S)Nc2ccc(Oc3ccnc4cc(OC)c(OC)cc34)c(Cl)c2)cc1 [Example 992, N-{3-Chloro-4-[(6,7-dimethoxy-4-quinolyl)oxy]phenyl}-N′-(4-ethoxybenzoyl)thiourea] — 0.48 log units lower, 6.12
- COc1cc2nccc(Oc3ccc(NC(=S)NC(=O)c4cccc(C(F)(F)F)c4)cc3F)c2cc1OC [Example 945, N-{4-[(6,7-Dimethoxy-4-quinolyl)oxy]-3-fluorophenyl}-N′-[3-(trifluoromethyl)benzoyl]thiourea] — 0.28 log units higher, 6.88
- COc1cc2nccc(Oc3ccc(NC(=S)NC(=O)c4cccc(F)c4)cc3Cl)c2cc1OC [Example 948, N-{3-Chloro-4-[(67-dimethoxy-4-quinolyl)oxy]phenyl}-N′-(3-fluorobenzoyl)thiourea] — 0.52 log units lower, 6.08
- COc1cc2nccc(Oc3ccc(NC(=S)NC(=O)c4ccc5c(c4)OCO5)cc3F)c2cc1OC [Example 1145, N-(1,3-Benzodioxol-5-ylcarbonyl)-N′-{4-[(6,7-dimethoxy-4-quinolyl)oxy]-3-fluorophenyl}thiourea] — 0.34 log units lower, 6.26
- COc1cc2nccc(Oc3ccc(NC(=S)NC(=O)c4ccccc4C(F)(F)F)cc3Cl)c2cc1OC [Example 924, N-{3-Chloro-4-[(6,7-dimethoxy-4-quinolyl)oxy]phenyl}-N′-[2-(trifluoromethyl)benzoyl]thiourea] — 0.24 log units lower, 6.36
- COc1cccc(C(=O)NC(=S)Nc2ccc(Oc3ccnc4cc(OC)c(OC)cc34)cc2F)c1 [Example 939, N-{4-[(6,7-Dimethoxy-4-quinolyl)oxy]-2-fluorophenyl}-N′-(3-methoxybenzoyl)thiourea] — within 0.2 log units, 6.66
- COc1cc2nccc(Oc3ccc(NCCOc4ccccc4C)cc3)c2cc1OC [Example 852, N-{4-[(6,7-Dimethoxy-4-quinolyl)oxy]phenyl}-N-[2-(2-methylphenoxy)ethyl]amine] — within 0.2 log units, 6.75
- COc1cc2nccc(Oc3ccc(NC(=S)NC(=O)C4CCCCC4)cc3)c2cc1OC [Example 1062, N-Cyclohexylcarbonyl-N′-{4-[(6,7-dimethoxy-4-quinolyl)oxy]phenyl}thiourea] — within 0.2 log units, 6.63
- COc1cc2nccc(Oc3ccc(N(C)CCOc4ccc(F)cc4)cc3)c2cc1OC [Example 867, N-{4-[(6,7-Dimethoxy-4-quinolyl)oxy]phenyl}-N-[2-(4-fluorophenoxy)ethyl]-N-methylamine] — within 0.2 log units, 6.72
- COc1ccc(C(=O)NC(=S)Nc2ccc(Oc3ccnc4cc(OC)c(OC)cc34)c(F)c2)c(OC)c1 [Example 1113, N-(2,4-Dimethoxybenzoyl)-N′-{4-[(6,7-dimethoxy-4-quinolyl)oxy]-3-fluorophenyl}thiourea] — 0.49 log units lower, 6.11
- COc1cc2nccc(Oc3ccc(NC(=S)NC(=O)c4ccc(Cl)c(Cl)c4)cc3)c2cc1OC [Example 1120] — 0.49 log units lower, 6.11
- COc1cc2nccc(Oc3ccc(NC(=S)NC(=O)c4cccc(Cl)c4)cc3)c2cc1OC [Example 932, N-(3-Chlorobenzoyl)-N′-{4-[(6,7-dimethoxy-4-quinolyl)oxy]phenyl}thiourea] — within 0.2 log units, 6.68
- COc1cc2nccc(Oc3ccc(NC(=S)NC(=O)C4CC4c4ccccc4)cc3F)c2cc1OC (centres unmarked) [Example 1057, N-{4-[(6,7-Dimethoxy-4-quinolyl)oxy]-3-fluorophenyl}-N′-[(2-phenylcyclopropyl)carbonyl]thiourea] — 0.25 log units lower, 6.35
- COc1cc2nccc(Oc3ccc(NC(=S)NC(=O)c4cc(Cl)cc(Cl)c4)cc3F)c2cc1OC [Example 1015, N-(3,5-Dichlorobenzoyl)-N′-{4-[(6,7-dimethoxy-4-quinolyl)oxy]-3-fluorophenyl}thiourea] — within 0.2 log units, 6.71
- COc1cc2nccc(Oc3ccc(NC(=S)NC(=O)C4CC4c4ccccc4)cc3Cl)c2cc1OC (centres unmarked) [Example 1059, N-{3-Chloro-4-[(6,7-dimethoxy-4-quinolyl)oxy]phenyl}-N′-[(2-phenylcyclopropyl)carbonyl]thiourea] — 0.34 log units lower, 6.26
- COc1ccc(OCCSc2ccc(Oc3ccnc4cc(OC)c(OC)cc34)cc2)cc1 [Example 813, 6,7-Dimethoxy-4-(4-{[2-(4-methoxyphenoxy)ethyl]sulfanyl}phenoxy)quinoline] — 0.20 log units lower, 6.40
- COc1cc2nccc(Oc3ccc(NC(=S)NC(=O)c4cccc(Cl)c4)cc3Cl)c2cc1OC [Example 949] — the same, 6.60
- COc1cc2nccc(Oc3ccc(S(=O)(=O)CCOc4ccc(C(C)C)cc4)cc3)c2cc1OC [Example 835, 4-[(6,7-Dimethoxy-4-quinolyl)oxy]phenyl [2-(4-isopropylphenoxy)ethyl]sulfone] — 0.42 log units lower, 6.18
- COc1cc2nccc(Oc3ccc(NC(=S)NC(=O)c4ccc(C)cc4)cc3F)c2cc1OC [Example 970, N-{4-[(6,7-Dimethoxy-4-quinolyl)oxy]-3-fluorophenyl}-N′-(4-methylbenzoyl)thiourea] — within 0.2 log units, 6.52
- COc1cc2nccc(Oc3ccc(NC(=S)NC(=O)c4ccc(Br)cc4)cc3Cl)c2cc1OC [Example 980, N-(4-Bromobenzoyl)-N′-{3-chloro-4-[(6,7-dimethoxy-4-quinolyl)oxy]phenyl}thiourea] — 0.51 log units lower, 6.09
- COc1cc2nccc(Oc3ccc(NC(=S)NC(=O)c4cccc(C(F)(F)F)c4)cc3)c2cc1OC [Example 934, N-{4-[(6,7-Dimethoxy-4-quinolyl)oxy]phenyl}-N′-[3-(trifluoromethyl)benzoyl]thiourea] — 0.24 log units higher, 6.84
- COc1cc2nccc(Oc3ccc(NCCOc4ccccc4Cl)cc3)c2cc1OC [Example 868, N-[2-(2-Chlorophenoxy)ethyl]-N-{4-[(6,7-dimethoxy-4-quinolyl)oxy]phenyl}amine] — 0.55 log units higher, 7.15
- COc1cc2nccc(Oc3ccc(NC(=S)NC(=O)c4cccc(F)c4)cc3)c2cc1OC [Example 931, N-{4-[(6,7-Dimethoxy-4-quinolyl)oxy]phenyl}-N′-(3-fluorobenzoyl)thiourea] — 0.31 log units lower, 6.29
- COc1cc2nccc(Oc3ccc(NC(=S)NC(=O)c4ccccc4)cc3)c2cc1OC [Example 897, N-Benzoyl-N′-{4-[(6,7-dimethoxy-4-quinolyl)oxy]phenyl}thiourea] — 0.57 log units lower, 6.03

Same assay, conditions: Mo7e, figure in parentheses in −( ); at 1000 nM

Point of comparison: COc1cc2ncnc(Oc3ccc(NC(=S)NC(=O)c4ccccc4OC)cc3)c2cc1OC [Example 929, N-{4-[(6,7-Dimethoxy-4-quinazolinyl)oxy]phenyl}-N′-(2-methoxybenzoyl)thiourea], inhibition at 1 µM 21%. Against it:
- COc1cc2nccc(Oc3ccc(NC(=S)NC(=O)c4ccccc4OC)cc3)c2cc1OC [Example 901, N-{4-[(6,7-Dimethoxy-4-quinolyl)oxy]phenyl}-N′-(2-methoxybenzoyl)thiourea] — higher, 27%
- COc1cc2nccc(Oc3ccc(NC(=S)NC(=O)c4ccco4)c(F)c3)c2cc1OC [Example 1035, N-{4-[(6,7-Dimethoxy-4-quinolyl)oxy]-2-fluorophenyl}-N′-(2-furylcarbonyl)thiourea] — lower, 17%
- CCc1ccc(C(=O)NC(=S)Nc2ccc(Oc3ccnc4cc(OC)c(OC)cc34)cc2F)cc1 [Example 993, N-{4-[(6,7-Dimethoxy-4-quinolyl)oxy]-2-fluorophenyl}-N′-(4-ethylbenzoyl)thiourea] — higher, 35%
- COc1cc2nccc(Oc3ccc(NC(=S)NC(=O)c4ccc(F)cc4F)cc3Cl)c2cc1OC [Example 1208, N-{3-Chloro-4-[(6,7-dimethoxy-4-quinolyl)oxy]phenyl}-N′-(2,4-difluorobenzoyl)thiourea] — higher, 22%
- COc1cc2nccc(Oc3ccc(NC(=S)NC(=O)c4ccccc4Cl)c(C)c3C)c2cc1OC [Example 1078, N-(2-Chlorobenzoyl)-N′-{4-[(6,7-dimethoxy-4-quinolyl)oxy]-2,3-dimethylphenyl}thiourea] — higher, 32%
- COc1cc2ncnc(Oc3ccc(NC(=S)NC(=O)c4ccccc4)cc3)c2cc1OC [Example 926, N-Benzoyl-N′-{4-[(6,7-dimethoxy-4-quinazolinyl)oxy]phenyl}thiourea] — higher, 31%
- COc1cc2nccc(Oc3ccc(NC(=S)NC(=O)c4ccccc4OC)cc3Cl)c2cc1OC [Example 923, N-{3-Chloro-4-[(6,7-dimethoxy-4-quinolyl)oxy]phenyl}-N′-(2-methoxybenzoyl)thiourea] — higher, 25%
- COc1cc2ncnc(Oc3ccc(NC(=S)NC(=O)c4ccc([N+](=O)[O-])cc4)cc3)c2cc1OC [Example 987, N-{4-[(6,7-Dimethoxy-4-quinazolinyl)oxy]phenyl}-N′-(4-nitrobenzoyl)thiourea] — higher, 32%

— patent US7135466B2 (Kirin Beer Kabushiki Kaisha, priority 1999, dated 2006)
